According to patent US20240208998A1, “COMPOUNDS FOR USE IN THE TREATMENT OF HYPERPROLIFERATIVE DISORDERS” (FUNDACIÓ PRIVADA INSTITUT D'INVESTIGACIÓ ONCOLÓGICA DE VALL …, priority 2021, published 2024):

Columns and labels:
[1] = test system: HL60 cell line; assay: Antiproliferative activity on HL60 cell line (CellTiter-Glo); type: cell-based; details: Homo sapiens, HL-60; HL60, 72 h of treatment
Description: The human leukaemic cell line HL60 was grown in suspension in RPMI 1640 medium containing 10% (v/v) FBS and 1% (v/v) P/S (Life Technologies). […] Leukaemia cells were suspended at a density of 2×10^5 cells/mL in complete RPMI 1640 medium and 25 μL were seeded in each well (5×10^3 final total cells/well). A 10 μM solution of the compounds of examples 1, 12 and 21, and a 25 μM solution of all other compounds were prepared in complete medium, and then serially diluted (1:2) (as specified in Table 3 below). A solution of complete medium with DMSO was used as a vehicle control.
Twenty-five microliters of each serially diluted compound solution were added to the corresponding wells of the plate (50 μL of final volume/well). After 48 h of treatment, 50 μL of fresh 2X serially diluted compound solution was added to their corresponding wells (100 μL of final volume/well). After twenty-four additional hours, an equal volume (100 μL) of CellTiter-Glo Reagent (Promega) was added to each well, plates were shaken during 2 min and incubated at rt for 10 min. Luminescence was recorded using a Spark multimode microplate reader and an integration time of 1 s per well.

[2] = molecular target: human TET2 construct (Homo sapiens, UniProt Q6N021, A1837G/A1840G/D1704G/D1842G/DEL1471-1702/DEL1708-1833/E1841G/F1706G/N1843S/Q1834G/V1836G); assay: Determination of TET2 binding by Surface Plasmon Resonance; details: SPR, Biacore T200, 25° C., steady state fit to single site interaction model
Description: The human methylcytosine dioxygenase TET2 construct used (1129-2002 with residues 1471-1843 replaced by a 15-residue GS-linker) was expressed in a pET-28a(+)psumo vector with kanamycin resistance and an N-terminal His6 tag, and cloned in Rosetta D3 Escherichia coli competent cells. Transformed cells were cultured overnight in 10 mL of LB media supplied with kanamycin (50 μg/mL), then scaled to 1 L LB medium supplied with kanamycin (50 μg/mL) and grown at 37° C. Once the optical density (OD600) achieved 0.8, protein expression was induced with 0.4 mM isopropyl-β-thiogalactopyranoside (IPTG) overnight at 18° C. Cells were harvested by centrifugation (8,000 rpm, 4° C., 30 min) and the pellet obtained was resuspended in 15 mL of buffer A (50 mM Hepes, 150 mM NaCl, 30 mM imidazole, 2 mM β-mercaptoethanol (pH 8.0) supplemented with Pierce protease inhibitor cocktail (ThermoFisher Scientific)) and lysed by sonication (1 min 40 s: 10 cycles×10 s ON, 30 s OFF, A=35%, T=19° C.) followed by two consecutive centrifugations (8,000 rpm, 4° C., 30 min) to clarify the lysate.
The TET2 protein was purified using an AKTA Start system (GE Healthcare, Uppsala, Sweden) by two-step purification procedure: one His-affinity chromatography followed by a size exclusion chromatography. First, the protein fraction obtained during the lysis (supernatant) was applied to a 5 mL HisTrap HP column (GE Healthcare), washed with buffer A (50 mM Hepes, 150 mM NaCl, 30 mM imidazole, 2 mM […] (pH 8.0)) and the bound protein was eluted with buffer B (50 mM Hepes, 150 mM NaCl, 250 mM imidazole, 2 mM β-mercaptoethanol (pH 8.0)). The eluted protein-containing fractions were pooled and concentrated up to 4 mL for the last purification step: a size exclusion chromatography (HiPrep 16/60 Sephacryl S-100 HR) in 50 mM Hepes, 150 mM NaCl, 2 mM β-mercaptoethanol (pH 8.0). Finally, the mass and purity of the protein were verified by SDS-electrophoresis and mass spectrometry.
The binding of compounds of the examples was determined by Surface Plasmon Resonance (SPR) using a Biacore T200 SPR biosensor instrument (GE Healthcare, Uppsala, Sweden) at 25° C. The human TET2 construct was immobilized on a CM5 sensor chip using a standard covalent immobilization via amine coupling following the activation of the carboxymethyl dextran matrix of the sensor chip (injection of a solution containing 0.1 M N-hydroxysuccinimide and 0.4 M 1-ethyl-3-[3-(dimethylamino)propyl]carbodiimide hydrochloride at a flow rate of 15 μL/min for 7 min). The protein immobilization was achieved after the injection of 5 μg/mL TET2 in 10 mM sodium acetate (pH 4.0) at a flow rate of 5 μL/min. Unreacted activated groups of the dextran matrix were deactivated by injection of 1 M ethanolamine hydrochloride for 7 min at a flow rate of 15 μL/min. The corresponding matrix activation and protein immobilization were performed using as a running buffer a phosphate buffered saline solution (1.05× PBS: 10 mM phosphate, pH 7.4, 150 mM NaCl). The screened compounds were prepared in a 20 mM stock solution in DMSO and diluted with 1.05× PBS to achieve a final 5% (v/v) DMSO concentration. The running buffer of the interaction assays consisted of 1×PBS, 5% (v/v) DMSO. The flow rate used for the screening was 60 μL/min and the ligand association and dissociation times set were 60 s and 120 s, respectively.
For data analysis the software used was the Biacore T200 Evaluation software. Different corrections were applied. First, the nonspecific binding to the chip surface and the baseline drift were corrected subtracting the signals of a reference surface (where the immobilization procedure was carried out without proteins) to the signals obtained on the TET2 surface. Second, a series of solvent standards (solvent correction) were introduced to remove the differences derived from the DMSO. Finally, the background was corrected subtracting blank injections (blank subtraction) to the injected compound signals.

| SMILES | melting point [°C] | EC50 [1] [µM] | Kd [2] [µM] |
| --- | --- | --- | --- |
| Cc1[nH]c2ccc([N+](=O)[O-])cc2c1-c1csc(NC(=O)Cc2cn3ccsc3n2)n1 [Example 27, 2-(imidazo[2,1-b]thiazol-6-yl)-N-[4-(2-methyl-5-nitro-1H-indol-3-yl)thiazol-2-yl]acetamide] | 150 to 151 |  |  |
| Cc1[nH]c2ccccc2c1-c1csc(N(C)C(=O)C(C)c2cn3ccsc3n2)n1 (stereo not drawn) [Example 15, 2-(imidazo[2,1-b]thiazol-6-yl)-N-methyl-N-[4-(2-methyl-1H-indol-3-yl)thiazol-2-yl]propanamide] | 85 to 88 | 20.2 | 11 |
| COc1ccc2[nH]cc(CC(=O)Nc3nc(-c4c(C)[nH]c5ccccc45)cs3)c2c1 [Example 6, 2-(5-methoxy-1H-indol-3-yl)-N-[4-(2-methyl-1H-indol-3-yl)thiazol-2-yl]acetamide] | 127 to 129 | 3.4 | 5 |
| O=C(Cc1cn2ccsc2n1)Nc1nc(-c2c[nH]c3ccc([N+](=O)[O-])cc23)cs1 [Example 23, 2-(imidazo[2,1-b]thiazol-6-yl)-N-[4-(5-nitro-1H-indol-3-yl)thiazol-2-yl]acetamide] | 232 to 234 |  | 15 |
| Cc1[nH]c2ccccc2c1-c1csc(NC(=O)Cc2c[nH]cn2)n1 [Example 17, 2-(1H-imidazol-4-yl)-N-[4-(2-methyl-1H-indol-3-yl)thiazol-2-yl]acetamide] | 107 to 112 | 4.9 | 11 |
| COc1ccc2[nH]c(C)c(-c3csc(NC(=O)Cc4cn5ccsc5n4)n3)c2c1 [Example 25, 2-(imidazo[2,1-b]thiazol-6-yl)-N-[4-(5-methoxy-2-methyl-1H-indol-3-yl)thiazol-2-yl]acetamide] | 143 to 144 |  | 13 |
| Cc1[nH]c2cc(F)ccc2c1-c1csc(NC(=O)Cc2cn3ccsc3n2)n1 [Example 26, N-[4-(6-fluoro-2-methyl-1H-indol-3-yl)thiazol-2-yl]-2-(imidazo[2,1-b]thiazol-6-yl)acetamide] | 157 to 158 |  | 16 |
| Cc1[nH]c2ccccc2c1-c1csc(NC(=O)Cc2cn3cc(F)ccc3n2)n1 [Example 8, 2-(6-fluoroimidazo[1,2-a]pyridin-2-yl)-N-[4-(2-methyl-1H-indol-3-yl)thiazol-2-yl]acetamide] | 114 to 119 | 0.072 | 10 |
| Cc1[nH]c2ccccc2c1-c1csc(NC(=O)Cc2cc3ccccc3o2)n1 [Example 18, 2-(benzofuran-2-yl)-N-[4-(2-methyl-1H-indol-3-yl)thiazol-2-yl]acetamide] | 198 to 200 | 7.5 | 5 |
| Cc1[nH]c2ccccc2c1-c1csc(NC(=O)CCc2c[nH]c3ccccc23)n1 [Example 14, 3-(1H-indol-3-yl)-N-[4-(2-methyl-1H-indol-3-yl)thiazol-2-yl]propanamide] | 133 to 135 | 13.4 | 14 |
| Cc1[nH]c2ccccc2c1-c1coc(NC(=O)Cc2cn3ccsc3n2)n1 [Example 5, 2-(imidazo[2,1-b]thiazol-6-yl)-N-[4-(2-methyl-1H-indol-3-yl)oxazol-2-yl]acetamide] | 122 to 124 | 12.1 | 21 |
| Cc1cn2cc(CC(=O)Nc3nc(-c4c(C)[nH]c5ccccc45)cs3)nc2s1 [Example 9, N-[4-(2-methyl-1H-indol-3-yl)thiazol-2-yl]-2-(2-methylimidazo[2,1-b]thiazol-6-yl)acetamide] | 140 to 142 |  | 9 |
| Cc1[nH]c2ccccc2c1-c1csc(NC(=O)Cc2nc3ccccc3o2)n1 [Example 3, 2-(benzo[d]oxazol-2-yl)-N-[4-(2-methyl-1H-indol-3-yl)thiazol-2-yl]acetamide] | 239 to 242 | 1.3 | 16 |
| Cc1[nH]c2ccccc2c1-c1csc(NC(=O)Cc2cc3ccccc3[nH]2)n1 [Example 7, 2-(1H-indol-2-yl)-N-[4-(2-methyl-1H-indol-3-yl)thiazol-2-yl]acetamide] | 166 to 168 | 9.3 | 5 |
| Cc1[nH]c2ccccc2c1-c1csc(NC(=O)Cc2cn(C)c3ccccc23)n1 [Example 11, 2-(1-methyl-1H-indol-3-yl)-N-[4-(2-methyl-1H-indol-3-yl)thiazol-2-yl]acetamide] | 139 to 142 | 2.2 | 2 |
| Cc1[nH]c2ccccc2c1-c1csc(NC(=O)Cc2c[nH]c3cc(Cl)ccc23)n1 [Example 16, 2-(6-chloro-1H-indol-3-yl)-N-[4-(2-methyl-1H-indol-3-yl)thiazol-2-yl]acetamide] | 175 to 177 |  | 7 |
| O=C(Cc1cn2ccsc2n1)Nc1nc(-c2c[nH]c3cccc(Br)c23)cs1 [Example 22, N-[4-(4-bromo-1H-indol-3-yl)thiazol-2-yl]-2-(imidazo[2,1-b]thiazol-6-yl)acetamide] | 233 to 235 | 0.266 | 2 |
| Cc1[nH]c2ccccc2c1-c1csc(NC(=O)Cc2cn3c(C)csc3n2)n1 [Example 10, N-[4-(2-methyl-1H-indol-3-yl)thiazol-2-yl]-2-(3-methylimidazo[2,1-b]thiazol-6-yl)acetamide] | 145 to 148 | 3.3 | 11 |
| Cc1[nH]c2ccccc2c1-c1csc(NC(=O)Cc2sc3ccccc3c2C)n1 [Example 20, N-[4-(2-methyl-1H-indol-3-yl)thiazol-2-yl]-2-(3-methylbenzo[b]thiophen-2-yl)acetamide] | 233 to 235 |  | 5 |
| Cc1ccc2[nH]cc(-c3csc(NC(=O)Cc4cn5ccsc5n4)n3)c2c1 [Example 24, 2-(imidazo[2,1-b]thiazol-6-yl)-N-[4-(5-methyl-1H-indol-3-yl)thiazol-2-yl]acetamide] | 160 to 162 | 0.912 | 1 |
| Cc1[nH]c2ccc(N)cc2c1-c1csc(NC(=O)Cc2cn3ccsc3n2)n1 [Example 28, N-[4-(5-amino-2-methyl-1H-indol-3-yl)thiazol-2-yl]-2-(imidazo[2,1-b]thiazol-6-yl)acetamide] | 125 to 126 |  | 67 |
